Patent US6335339B1, “Triazine antiviral compounds” (Scriptgen Pharmaceuticals, Inc., priority 1998, dated 2002)

Tested on: HBV εRNA
Experiment: εRNA/oligonucleotide hybridization inhibition assay with rRNA competitor
Format: binding, Hepatitis B virus
Settings: for IC50 / HBV + rRNA IC50 (μM): radiolabeled εRNA, 60-fold excess rRNA competitor; for Specificity: ratio RRE+rRNA IC50/εRNA+rRNA IC50, max = inactive in RRE assay
Outline: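 Inhibition of hybridization between 25 nM [32P]-εRNA and 100 nM biotinylated complementary oligonucleotide (50 mM Tris-HCl pH 7.5, 200 mM KCl, 5 mM MgCl2, 60 min, 25 °C), hybrids captured by streptavidin filter and counted. Titrations 0.1-200 μM with 60-fold excess rRNA; specificity = RRE+rRNA IC50/εRNA+rRNA IC50.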

| SMILES | IC50 [µM] | Specificity | HBV + rRNA IC50 (μM) |
| --- | --- | --- | --- |
| O=C(NNc1nc(Nc2ccccc2)nc(Nc2cccc(C(F)(F)F)c2)n1)c1cccc(Br)c1 [Compound 220] | 27.6 | 33.3 |  |
| CN(C)c1nc(NCc2ccccc2)nc(NN=Cc2ccc(Cl)cc2Cl)n1 [Compound 224] | 60.1 | max. |  |
| COc1ccc(Nc2nc(NCc3cccc([N+](=O)[O-])c3)nc(NCc3cc(F)ccc3F)n2)cc1OC [Compound 225] | 193 | max. |  |
| Cc1ccc(Nc2nc(NCc3ccccc3)nc(NN=Cc3cc(Cl)ccc3O)n2)cc1C [Compound 226] | 84.4 | 5.0 |  |
| CC(=NNc1nc(Nc2ccccc2)nc(N2CCCC2)n1)c1ccc(F)cc1 [Compound 227] | 12.8 | max. |  |
| Cc1ccc(Nc2nc(NCc3ccccc3)nc(NN=Cc3ccccc3F)n2)cc1C [Compound 228] | 79.3 | max. |  |
| Cc1ccc(Nc2nc(NN=Cc3cccc([N+](=O)[O-])c3)nc(Nc3ccccc3)n2)c(C)c1 [Compound 229] | 4.4 | max. |  |
| Brc1ccc(Nc2nc(NCc3ccccc3)nc(Nc3ccc(Br)cc3)n2)cc1 [Compound 230] | 20.9 | max. |  |
| O=[N+]([O-])c1ccc(Nc2nc(NCc3ccccc3)nc(N3CCOCC3)n2)cc1 [Compound 231] | 195 | max. |  |
| Oc1ccc(Br)cc1C=NNc1nc(Nc2cccc(Br)c2)nc(N2CCOCC2)n1 [Compound 232] | 45.5 | max. |  |
| CNc1nc(NN=Cc2cc(Cl)ccc2O)nc(Nc2ccccc2)n1 [Compound 245] | 8.1 | max. |  |
| Oc1ccc(Br)cc1C=NNc1nc(Nc2cccc(C(F)(F)F)c2)nc(N2CCOCC2)n1 [Compound 246] | 5.6 | max. |  |
| FC(F)(F)c1cccc(Nc2nc(Nc3cccc(Cl)c3)nc(N3CCOCC3)n2)c1 [Compound 247] | 6.7 | max. |  |
| Cc1ccc(Nc2nc(NCc3cc(F)ccc3F)nc(Nc3ccc([N+](=O)[O-])cc3)n2)cc1C [Compound 248] |  |  | inactive |
| Cc1ccc(Nc2nc(NN=Cc3ccc(Cl)cc3)nc(N3CCOCC3)n2)cc1 [Compound 249] | 47.2 | max. |  |
| Cc1ccc(Nc2nc(NNC(=O)c3ccccc3O)nc(Oc3ccc([N+](=O)[O-])cc3)n2)cc1C [Compound 250] |  |  | inactive |
| Cc1ccc(Nc2nc(Nc3cccc(C(F)(F)F)c3)nc(N3CCOCC3)n2)cc1C [Compound 251] | 45 | max. |  |
| COc1ccc(Nc2nc(NCCc3ccccc3)nc(N(C)C)n2)cc1OC [Compound 252] |  |  | inactive |
| CNc1nc(NN=Cc2ccccc2C(F)(F)F)nc(Nc2cccc(C(F)(F)F)c2)n1 [Compound 253] | 11 | 59.9 |  |
